# Reference: patent US12351574B2, “Selective ligands for modulation of GIRK channels” (Northeastern University, priority 2018, dated 2025)
# Molecular target: T1, GIRK1-S65Y with GIRK2 (UniProt P48542+P48549, S65Y)
# T1 construct: expressed in transfected cells; host or cells: HEK293 cells
# T1 sequence (P48549 1-501 S65Y): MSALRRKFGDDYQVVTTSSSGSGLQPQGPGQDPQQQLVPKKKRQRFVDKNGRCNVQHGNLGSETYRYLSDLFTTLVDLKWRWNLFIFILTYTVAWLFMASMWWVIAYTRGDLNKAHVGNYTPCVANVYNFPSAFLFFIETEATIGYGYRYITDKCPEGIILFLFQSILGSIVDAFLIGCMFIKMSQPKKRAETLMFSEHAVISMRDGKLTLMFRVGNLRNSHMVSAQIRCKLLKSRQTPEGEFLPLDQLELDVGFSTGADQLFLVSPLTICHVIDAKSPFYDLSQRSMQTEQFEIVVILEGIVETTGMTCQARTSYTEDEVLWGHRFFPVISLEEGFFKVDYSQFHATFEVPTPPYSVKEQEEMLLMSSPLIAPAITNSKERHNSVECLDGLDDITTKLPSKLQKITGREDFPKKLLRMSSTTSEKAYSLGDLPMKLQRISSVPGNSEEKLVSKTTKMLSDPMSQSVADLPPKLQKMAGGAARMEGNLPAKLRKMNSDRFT
# T1 sequence (P48542 1-425): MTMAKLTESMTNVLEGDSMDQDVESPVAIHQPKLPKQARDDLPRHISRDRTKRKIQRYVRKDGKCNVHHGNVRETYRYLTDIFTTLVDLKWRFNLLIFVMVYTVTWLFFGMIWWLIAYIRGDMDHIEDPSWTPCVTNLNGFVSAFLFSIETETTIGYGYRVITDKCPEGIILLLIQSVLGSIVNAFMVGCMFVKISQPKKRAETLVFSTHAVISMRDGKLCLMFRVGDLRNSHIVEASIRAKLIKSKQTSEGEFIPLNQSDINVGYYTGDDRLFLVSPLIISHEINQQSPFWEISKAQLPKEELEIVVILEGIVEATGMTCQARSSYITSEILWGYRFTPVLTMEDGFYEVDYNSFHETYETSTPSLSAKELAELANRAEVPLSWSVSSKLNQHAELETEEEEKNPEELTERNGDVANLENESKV
# Test: 5-ptaseOCRL current inhibition, GIRK1/2 channels containing GIRK1-S65Y subunits
# Assay type: cell-based, human GIRK1, mouse GIRK2
# Settings: 10 μM GAT1508
# Excerpt: To identify changes in specific channel residue interactions with PIP2 upon ligand binding, the inventors carried out Principal Component Analysis (PCA) in the presence and absence of ML297 and GAT1508. The PCA analysis implicated changes in the slide (or interfacial) helix interactions with PIP2 upon ligand binding. Polar interactions could be formed between GIRK2^FD(Y76) and GIRK4^FD(Y71) with the P(4,5) of PIP2 when ML297 was bound to the same subunit (FIG. 39 top, FIG. 40). In contrast, when GAT1508 was bound this interaction was retained by GIRK2^FD but not GIRK4^FD (FIG. 39 bottom, FIG. 40). The corresponding GIRK1(S65) residue (FIG. 41, highlighted with vertical rectangle) could be serving the same role in stabilizing the phosphoinositol headgroup for interactions with non-ligand binding subunits. As polar residues, both Ser and Tyr could form H-bond interactions with PIP2. […]
# Patch-clamp recording: Whole-cell currents were recorded with an Axopatch 200B amplifier (Molecular Devices) controlled via a USB-interface (National Instruments) using WinWCP software (University of Strathclyde). […] The barium-sensitive component of the current, observed when cells were perfused with the high-K^+ buffer, was analyzed and was determined by perfusing 5 mM BaCl2 in the high-K^+ buffer at the end of each experiment. […]
structure (smiles),measurement,value
"Cc1cc(NC(=O)Nc2ccc(Br)s2)n(-c2ccccc2)n1 [GAT1508, 1-(5-bromothiophen-2-yl)-3-(3-methyl-1-phenyl-1H-pyrazol-5-yl)urea]",protection of current from 5-ptaseOCRL (in words),no additional effect
